Data taken from publication PMC6034706 (ChemMedChem, 2017).
Read-outs that look alike come from different tables or passages of the source.

What was measured:
VIM2 expressing E. coli = assay type: cell-based; conditions: for relative percentage growth, VIM2 expressing E. coli, Amox (+): with 50 μM amoxicillin; for relative percentage growth, VIM2 expressing E. coli, Amox (+) / relative percentage growth, VIM2 expressing E. coli, Amox (−): relative to untreated cells; for growth inhibition activity on its own: VIM2-expressing E. coli, without amoxicillin; for relative percentage growth, VIM2 expressing E. coli, Amox (−): compound alone
E. coli = assay: Cell viability assay, bacterial growth; assay type: cell-based; conditions: for relative percentage growth, E. coli, Amox (+): with 50 μM amoxicillin; for relative percentage growth, E. coli, Amox (+) / relative percentage growth, E. coli, Amox (−): relative to untreated cells; for growth inhibition activity on its own: wild-type E. coli, without amoxicillin; for relative percentage growth, E. coli, Amox (−): compound alone
VIM2 [1] = target: T1, VIM2 (Escherichia coli, UniProt Q5U7L7); assay type: biochemical, P. aeruginosa; conditions: 50 μM compound, 5 nM VIM-2, 10 μM nitrocefin, 30 mins
VIM2 [2] = target: T1, VIM2; assay: biochemical; assay type: biochemical, P. aeruginosa; conditions: for IC50: 5 nM VIM-2, 10 μM nitrocefin
[3] = tested on: human embryonic kidney HEK 293 cell lines; conditions: cited from earlier work
[4] = Plasma stability study, mouse plasma; assay type: in vitro ADME; conditions: 10 μM, 37 °C, pooled plasma
[5] = Plasma stability study, human plasma; assay type: in vitro ADME; conditions: 10 μM, 37 °C, pooled plasma
all eleven HDACs = conditions: earlier studies ref [10]; cited from earlier work
VIM-2 expressing E. coli = assay: Half maximal effective concentration; assay type: cell-based; conditions: in the presence of 50 μM amoxicillin
VIM2 [6] = target: T1, VIM2; design: species or system P. aeruginosa; conditions: 6 and 12 μM inhibitor, 6 μM VIM-2, ICP-AES
[7] = tested on: O=C(Cc1cccs1)N[C@@H]1C(=O)N2C(C(=O)O)=C(/C=C/c3ccc([N+](=O)[O-])cc3[N+](=O)[O-])CS[C@H]12; assay: purified protein, by the assay type; conditions: other: 50 mM potassium phosphate buffer, pH 7.0, room temperature
[8] = competitive-inhibition fit, nitrocefin substrate

CC1(C)S[C@@H]2[C@H](NC(=O)[C@H](N)c3ccc(O)cc3)C(=O)N2[C@H]1C(=O)O [Amox, amoxicillin]
relative percentage growth, VIM2 expressing E. coli, Amox (+) (VIM2 expressing E. coli): 77% | relative percentage growth, VIM2 expressing E. coli, Amox (+) (VIM2 expressing E. coli; listed as amoxicillin): ineffective | inhibition at 50 µM (E. coli; Escherichia coli, read-out: growth inhibition by amoxicillin alone): > 96% | relative percentage growth, E. coli, Amox (+) (E. coli): 3.6%

O=C(O)[C@H]1/C(=C/CO)O[C@@H]2CC(=O)N21 [Clavulanate]
% Inhibition at 50 μM (VIM2 [1]): 15% | relative percentage growth, VIM2 expressing E. coli, Amox (+) (VIM2 expressing E. coli; listed as clavulanic acid): ineffective

On1ccccc1=S [Compound 2, 1-Hydroxypyridine-2-thione]
Ki (VIM2 [2]): 217 nM | growth inhibition activity on its own (VIM2 expressing E. coli): over 89% | growth inhibition activity on its own (E. coli): over 89%

[Na+].[O-]n1ccccc1=S [Compound 2b]
IC50 (VIM2 [2]): 908 nM | Ki (VIM2 [2]; [8]): 217 nM | % Inhibition at 50 μM (VIM2 [1]): 93%

O=C(O)c1cccc(=S)n1O [Compound 3, 1-hydroxypyridine-2(1H)-thiones-6-carboxylic acid]
Ki (VIM2 [2]): 0.013 nM | IC50 (VIM2 [2]): 270 nM | LE (ligand efficiency) (VIM2 [2]; LE = -1.38 log (Ki) / N, N = number of heavy atoms): 0.99 | Ki (VIM2 [2]; [8]): 13 nM | % Inhibition at 50 μM (VIM2 [1]): 98% | CC50 [3]: 97.4 µM | growth inhibition activity on its own (VIM2 expressing E. coli): moderate antibacterial activity | relative percentage growth, VIM2 expressing E. coli, Amox (−) (VIM2 expressing E. coli): 61% | relative percentage growth, VIM2 expressing E. coli, Amox (+) (VIM2 expressing E. coli): 3.2% | Mouse Plasma t1/2 [4]: 12.7 min | Human Plasma t1/2 [5]: 11.7 min | range of selectivity among HDACs (all eleven HDACs): ~5000 fold | relative percentage growth, E. coli, Amox (−) (E. coli): 77% | growth inhibition activity on its own (E. coli): moderate antibacterial activity | relative percentage growth, E. coli, Amox (+) (E. coli): 3.6% | EC50 (VIM-2 expressing E. coli): 110 nM

O=C(O)CN(CCN(CC(=O)O)CC(=O)O)CC(=O)O [EDTA]
metal content of VIM-2 with increasing inhibitor concentration (VIM2 [6]): inverse relationship

C[C@H](CS)C(=O)N1CCC[C@H]1C(=O)O [L-Captopril]
metal content of VIM-2 with increasing inhibitor concentration (VIM2 [6]): relatively unaffected | % Inhibition at 50 μM (VIM2 [1]): 98% | growth inhibition activity on its own (VIM2 expressing E. coli): moderate antibacterial activity | growth inhibition activity on its own (E. coli): moderate antibacterial activity

O=C(CCCCCCC(=O)Nc1ccccc1)NO [SAHA]
relative percentage growth, VIM2 expressing E. coli, Amox (−) (VIM2 expressing E. coli): 79% | relative percentage growth, VIM2 expressing E. coli, Amox (+) (VIM2 expressing E. coli): 60% | relative percentage growth, E. coli, Amox (−) (E. coli): 83% | relative percentage growth, E. coli, Amox (+) (E. coli): 3.6%

C[C@]1(Cn2ccnn2)[C@H](C(=O)O)N2C(=O)C[C@H]2S1(=O)=O [Tazobactam]
% Inhibition at 50 μM (VIM2 [1]): 25%

VIM-2 (Escherichia coli)
kcat [7]: 212 s⁻¹
